Source: the supplement of paper PMC5844555

Tests used:
Assay in all cases: 3' UTR reporter interaction score (median-centred robust z-score of log2 firefly/Renilla activity); higher = less repression of the 3' UTR reporter
Settings in all cases: HEK293T; 48 h
BRCA2 = test system: BRCA2
How it was run: (§1)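 In at least two independent screens, HEK293T cells in 96-well plates (10,000/well) were co-transfected with DharmaFECT Duo using 100 ng firefly luc2P reporter with the gene's 3' UTR, 20 ng Renilla pRL-TK control and 2.5 pmol miRNA mimic, and dual-luciferase activities were read at 48 h. The interaction score, averaged across screens, is the per-plate robust z-score (median, median absolute deviation) of the log firefly/Renilla ratio, median-centred per miRNA, with more negative indicating interaction.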

EZH2 = test system: EZH2
How it was run: as §1

FBXW7 = test system: FBXW7
How it was run: as §1

HRAS = test system: HRAS
How it was run: as §1

MYB = test system: MYB
How it was run: as §1

MYCN = test system: MYCN
How it was run: as §1

MYC = test system: MYC
How it was run: as §1

MYT1L = test system: MYT1L
How it was run: as §1

NOTCH1 = test system: NOTCH1
How it was run: as §1

PHF6 = test system: PHF6
How it was run: as §1

PHOX2B = test system: PHOX2B
How it was run: as §1

RB1 = test system: RB1
How it was run: as §1

TP53 = test system: TP53
How it was run: as §1

ZEB2 = test system: ZEB2
How it was run: as §1

| Sequence | 3' UTR reporter interaction score (BRCA2) | 3' UTR reporter interaction score (EZH2) | 3' UTR reporter interaction score (FBXW7) | 3' UTR reporter interaction score (HRAS) | 3' UTR reporter interaction score (MYB) | 3' UTR reporter interaction score (MYCN) | 3' UTR reporter interaction score (MYC) | 3' UTR reporter interaction score (MYT1L) | 3' UTR reporter interaction score (NOTCH1) | 3' UTR reporter interaction score (PHF6) | 3' UTR reporter interaction score (PHOX2B) | 3' UTR reporter interaction score (RB1) | 3' UTR reporter interaction score (TP53) | 3' UTR reporter interaction score (ZEB2) |
| --- | --- | --- | --- | --- | --- | --- | --- | --- | --- | --- | --- | --- | --- | --- |
| UAGCACCAUUUGAAAUCAGUGUU | 0.947 | 0.729 | -3.34 | -0.0949 | 0.253 | -3.52 | 0.295 | 0.287 | 0.166 | 0.425 | -1.1 | -0.25 | -0.394 | 0.0122 |
| UAGCACCAUUUGAAAUCGGU | 0.875 | 0.53 | -2.01 | 0.156 | 0.262 | -3.2 | 0.499 | -0.0531 | 0.946 | -0.281 | -0.0846 | -0.0587 | -0.108 | -0.664 |
| UAGCAGCACAGAAAUAUUGGC | -0.194 | -0.914 | -1.49 | -1.27 | -2.7 | -0.51 | -0.447 | -1.5 | -0.212 | 1.22 | 0.776 | 0.887 | 0.439 | 2.12 |
| UAGCAGCACAUCAUGGUUUACA | -0.138 | -0.225 | -2.93 | -0.34 | -1.34 | 0.0626 | 0.39 | -3.09 | -0.541 | 0.453 | 0.488 | 0.792 | -0.579 | 2.82 |
| UAGCAGCACGUAAAUAUUGGCG | -0.0822 | 0.0745 | -0.915 | -0.0204 | 0.8 | 0.0935 | 0.946 | -0.142 | -0.0927 | -0.551 | -0.629 | -0.115 | -0.054 | 0.217 |
| UAGCAGCGGGAACAGUUCUGCAG | 0.681 | -0.757 | -2.86 | -0.261 | -2.27 | 0.142 | 0.339 | -3.34 | 9.71e-17 | 0.822 | -0.446 | 0.756 | 1.12 | 0.481 |
| UAGCUUAUCAGACUGAUGUUGA | -0.228 | 0.437 | 0.067 | -0.166 | 0.65 | -0.604 | -0.465 | -0.0152 | -0.0874 | 0.231 | 0.355 | 0.943 | -0.564 | -0.0716 |
| UAGGCAGUGUCAUUAGCUGAUUG | 1.04 | -5.52 | -1.11 | 1.22 | -2.78 | -3.63 | -5.22 | 0.837 | -2.66 | 0.274 | 1.92 | -0.567 | 0.66 | -1.58 |
| UAGGUAGUUUCAUGUUGUUGG | 0.216 | -1.54 | 1.58 | -0.663 | -1.52 | -1.16 | -1.91 | 1.55 | -0.0228 | -0.281 | 1.68 | 0.553 | 0.576 | 0.231 |
| UAGGUUAUCCGUGUUGCCUUCG | -0.557 | 0.345 | -0.104 | 0.327 | 1.02 | 0.616 | -0.452 | -0.174 | 0.0096 | 1.26 | 0.827 | -0.0884 | -0.804 | 0.258 |
| UAGUACCAGUACCUUGUGUUCA | -0.45 | 0.789 | 0.884 | 0.088 | -2.96 | 0.174 | 0.000513 | 0.421 | -0.471 | -0.322 | -0.362 | 0.0822 | -0.292 | 1.08 |
| UAGUGCAAUAUUGCUUAUAGGGUUU | -0.656 | -1.22 | 0.629 | 0.0165 | -2.42 | 0.515 | 0.454 | 0.572 | 0.766 | 0.108 | -0.0733 | 1.16 | -1.04 | -0.0644 |
| UAUACAAGGGCAAGCUCUCUGU | -0.0857 | -0.739 | 0.144 | 0.186 | 0.159 | -1.08 | 0.32 | 0.075 | -0.0974 | 0.0525 | 0.912 | 0.0344 | -0.221 | -0.506 |
| UAUGCAUUGUAUUUUUAGGUCC | 0.674 | 0.224 | -0.388 | 0.558 | -1.29 | -0.281 | 0.248 | -0.778 | 0.872 | -1.28 | -2.52 | 0.308 | -0.83 | -1.13 |
| UAUGGCACUGGUAGAAUUCACUG | 0.00324 | 0.196 | 0.255 | -0.187 | 0.482 | 0.735 | 0.422 | 0.00898 | -0.295 | -1.31 | 0.374 | -0.628 | -0.0687 | -2.1 |
| UAUGGCUUUUCAUUCCUAUGUG | -1.68 | 0.203 | 0.501 | -0.329 | -0.208 | 0.938 | -0.427 | 0.255 | 0.259 | -0.00424 | 0.949 | -1.89 | 0.354 | 0.267 |
| UAUGGCUUUUUAUUCCUAUGUGA | 0.03 | 0.742 | 0.0824 | -0.268 | -0.0826 | 0.776 | -0.0719 | 0.172 | -0.625 | 0.879 | -1.06 | -0.178 | 0.14 | 0.676 |
| UAUGUAAUAUGGUCCACAUCUU | -0.619 | -0.223 | 0.706 | -0.0539 | 0.474 | 0.254 | 0.455 | 1.41 | 0.765 | -0.945 | 0.805 | 0.421 | -0.793 | -1.16 |
| UAUGUGCCUUUGGACUACAUCG | -1.13 | -0.568 | 0.444 | -0.0556 | 0.663 | 0 | 0.403 | -1.09 | 0.00167 | 0.707 | -3.33 | 0.319 | -0.404 | 0.0793 |
